Measurements from patent publication US11420994B2, “Carbon-monoxide-releasing molecules and therapeutic applications thereof” (GEORGIA STATE UNIVERSITY RESEARCH FOUNDATION, INC., priority 2016, dated 2022).

What was measured:
[1] = MTT cytotoxicity test of mannose-modified reactants
Experimental: The cytotoxicity test, MTT assay, was performed to define the concentration using TPCPD-M (57, 1 mM) and BCN-M (61, 1 mM) (FIG. 4).

TNF-α [2] = assay: LPS-induced accumulation of TNF-α in RAW 264.7 culture supernatant (ELISA), two-component system; format: cell-based, mouse
Experimental: RAW264.7 cell were seeded in 6-well plates and incubated overnight. Cells were then stimulated with LPS (10 mg/mL) for 1 h. TPCPD (1) and BCN (6a) (different concentrations) were added to well after 1 hr LPS treatment (same for all wells). As a control, the product (31) was used at same concentration as the anti-inflammation test to confirm that the suppression of TNF-α is result of CO instead of the reagent (or product) themselves (compounds 1, 6a, and 31). TNF-α secretion in the medium was measured with an eBioscience kit (mouse TNF-α ELISA kit, eBioscience, San Diego, Calif., USA).
TNF-α is a major pro-inflammatory cytokine, mainly secreted from macrophages and dendritic cells. Its production is induced in vitro by stimulation with LPS. The accumulation of TNF-α was assessed by ELISA in the culture supernatant of the macrophage cell line, RAW 264.7 (FIG. 5). The cells were stimulated for 1 h and then co-treated by […] for 24 h. […] A 50% decrease of the LPS-induced accumulation of TNF-α was observed after co-treatment with TPCPD-M and BCN-M at the respective concentration of 1 mM+1 mM.

[3] = Reaction of TPCPD with cyclooctynes at 50 mM, time to completion; format: physicochemical; conditions: 50 mM concentration
RAW cells = assay: WST-1 cytotoxicity test; format: cell-based, mouse
Experimental: In order to assess the cytotoxic effect of the reactants, 1 and 6a, as well as product 31, on RAW cells, the cytotoxicity test WST-1 was performed to examine induction by TPCPD (1) and BCN (6a) over varying concentrations and periods of time (FIGS. 3a-c).
Different concentrations of each molecule were assessed: from 0.78 to 100 μM for 1 and 31 and 7.8 to 1000 μM for 6a. Different time points were assessed (1 h, 4 h, 8 h and 24 h). Triton 0.1% was used as a positive control of cytotoxicity and the subsequent value was established as 100% of cytotoxicity.

[4] = CO release kinetics by increase of fluorescence intensity; format: physicochemical
Experimental: Compound 10a was dissolved indifferent solvents including CH2Cl2 (25° C.), CH3CN (25° C.), DMSO (25° C.), DMSO/PBS (10:1, 25° C.), DMSO/PBS (5:1, 25° C.), and DMSO/PBS (5:1, 37° C.) to give a final concentration of around 100 μM, and CO release was monitored by fluorescence intensity at 450 nm. Each experiment was repeated three times independently. The CO release rate (first order reaction rate) in DCM, CH3CN, DMSO, DMSO/PBS (10:1), DMSO/PBS (5:1), and DMSO/PBS (5:1, 37° C.) were different and their individual rate constant was calculated to be 2.3±0.2, 3.6±0.4, 6.6±0.6, 7.7±0.6, 11.0±1.4 and 22.4±3.2 h^−1, respectively. […] The CO release rate increased along with the polarity of the solvent.

[5] = Fluorescence properties of the cycloaddition products; format: physicochemical; conditions: for λem emission wavelength / λex excitation wavelength: of the cycloaddition products 44a-44f and 100a; for Φ quantum yield: of the cycloaddition products 44a-44f and 100a in MeOH, quinine sulfate as the standard
[6] = Intramolecular DAR in DMSO/PBS (7.4) at 37° C., time to completion; format: physicochemical
Experimental: A solution of compound 10b in DMSO/PBS (7.4) was incubated at 37° C. for 3 hrs, after which the intramolecular DAR reaction finished. Then the reaction mixture was extracted with ethyl acetate, and the obtained organic layer was dried with anhydrous Na2SO4, filtered and concentrated. Thus obtained pale yellow solid was characterized by ^1H NMR as the intramolecular DAR product. ^1H NMR (400 MHz, CDCl3): δ 9.27 (d, J=7.2 Hz, 1H), 7.88 (d, J=8.0 Hz, 1H), 7.79 (d, J=8.0 Hz, 1H), 7.71 (t, J=7.6 Hz, 1H), 7.61-7.53 (m, 5H), 7.32 (t, J=8.0 Hz, 1H), 7.08 (s, 1H), 7.04 (d, J=7.2 Hz, 1H), 5.37-5.18 (m, 1H), 3.53 (t, J=6.0 Hz, 2H), 3.05 (t, J=6.0 Hz, 2H), 1.32 (d, J=6.8 Hz, 6H).
A solution of compound 10b in DMSO/PBS (7.4) was incubated at 37° C. for 24 hrs, after which the intramolecular DAR reaction was finished. Then the reaction mixture was extracted with ethyl acetate, and the obtained organic layer was dried with anhydrous Na2SO4. Filtered and concentrated, the obtained pale yellow solid was characterized by ^1H NMR as the intramolecular DAR product. ^1H NMR (400 MHz, CDCl3) δ 9.12 (d, J=8.0 Hz, 1H), 7.83 (d, J=8.4 Hz, 1H), 7.73 (d, J=8.4 Hz, 1H), 7.68 (t, J=8.0 Hz, 1H), 7.63-7.54 (m, 3H), 7.36 (d, J=8.0 Hz, 2H), 7.24 (t, J=8.0 Hz, 1H), 6.32 (d, J=8.0 Hz, 1H), 5.29-5.26 (m, 1H), 3.57-3.46 (m, 2H), 3.05-2.94 (m, 2H), 2.12 (s, 3H), 1.33 (d, J=6.8 Hz, 6H). […]

TNF-α [7] = assay: TNF-α ELISA in LPS treated RAW 264.7 cells pre-treated with CO prodrug; format: cell-based, mouse; conditions: pre-treated 5 h, then LPS 1 h
Experimental: RAW 264.7 cells were seeded in the 48-well plate one day before the experiment.
LPS was used to initialize the inflammatory response in RAW 264.7 cells and trigger the expression of cytokines. RAW 264.7 cells were pre-treated with different concentrations of 10b or 44b product for 5 hours. Thereafter, […] LPS was added with into the cell culture media. For TNF-α test, the cell culture supernatant was collected after 1 hour of LPS treatment. For IL-6 test, the cell culture supernatant was collected after 4 hours of LPS treatment. Cell culture without LPS treatment was used as control.
(§1) 10a-10d, and 100 with different release rates were chosen to test their inhibitory effect against lipopolysaccharide (LPS) induced TNF-α secretion in RAW 264.7 cells. […] This was followed by the treatment of LPS for another 1 h. Then the cell culture supernatants were subjected to ELISA assay for TNF-α levels.

TNBS induced colitis = TNBS induced colitis in mice; format: in vivo
Experimental: Male adult C57BL/6 mice (8-12 weeks, 20-25 g) were obtained from Sichuan University laboratory animal center, and housed in standard conditions with constant temperature (22±2° C.) and 12 h light-dark cycle, free to sterile water and standard food.
TNBS (Trinitrobenzene sulfonic acid) enema was used for colitis induction.^3 Mice were randomly assigned into four groups: sham control group, TNBS model group, 10b treatment group and 44b group. Briefly, mice were fasted for 24 h, and then lightly anesthetized with 1% isoflurane. TNBS (in saline-ethanol, 50:50, v/v) solution 50 μL was infused into the colon using a cannula with the depth of 4 cm from anus. Mice in sham control group received 50 μL vehicle (saline-ethanol, 50:50, v/v). Mice were held with a vertical position for at least 30s after infusion, for sake of homogenous distribution and retention of TNBS. Mice would not be put back to the cage until they wake up and have autonomous respiration.
Drug administration. Vehicle solution (Solutol:saline=30:70), 10b (15 mg/kg) and 44b (15 mg/kg) was i.p. injected 1 hour before model construction; and 24 h, 48 h and 72 h after model construction. Euthanasia was conducted on 1st/3rd/7th day respectively through intraperitoneally injecting of pentobarbital sodium, and samples were removed and analyzed later.
Macroscopic evaluation of colitis damage. Colons were removed quickly and lengths were measured and represented in centimeter. After that, colons were longitudinally excised and carefully washed with ice-cold normal saline. Macroscopic signs of colon damage were evaluated by an experimenter blind to the mice grouping, according to an established semi-quantitative scoring system: Ulcer (0.5 points=0.5 cm); Colonic shortening (1 point≥15%, 2 points≥25%, based on the average length of colons from the control group); Every additional presence of hemorrhage, diarrhea or fecal blood added 1 point to the score. Intestinal wall thickness was measured in millimeter and recorded as well.
Mice were dosed with 10b (15 mg/kg), 44b (15 mg/kg), or the vehicle (solutol/saline=30:70) control by intraperitoneal injection 1 h before the model construction, and then dosed again at 24 h, 48 h and 72 h time points after the model construction; and then sacrificed. Colon was removed for macroscopic evaluation of colitis damage.

[8] = Determination of CO release rates (fluorescence or UV absorbance); format: physicochemical; conditions: DMSO/PBS (4:1) at 37° C.
Experimental: For CO prodrugs with naphthalene scaffold, the CO release rate is easily done by monitoring the fluorescence intensity of the cyclized product. For the others, the CO release rate was determined by employing the UV absorbance difference between the prodrugs and the cyclized product.

RAW 264.7 cells = assay: Cytotoxicity of CO prodrugs and inactive products (MTT); format: cell-based, mouse; conditions: 24 h incubation
Experimental: The toxicity of compound 10b and product of compound 10b (44b) after CO release were tested on RAW 264.7 cells, which is a mouse macrophage cell line used for anti-inflammation test. Different concentrations of 10b and 44b product were added into the cell culture media (Dulbecco's Modified Eagle's Medium supplemented with 10% heat inactivated fetal bovine serum and 1% penicillin-streptomycin). All samples with different concentrations of 10b or 44b product contained 1% DMSO in the cell culture media. RAW 264.7 cells were seeded in 96-well plate one day before the experiment. The cells were then incubated with the compound for 24 hours at 37° C. with 5% CO2. The cell viability was tested by MTT assay. Basically, after 24 hours of incubation, 0.5 mg/mL MTT (3-(4,5-Dimethylthiazol-2-yl)-2,5-Diphenyltetrazolium Bromide) was added into the cell culture and incubated for 4 hours. Thereafter, the supernatant was removed and 100 μL of DMSO were added into the wells containing cells. After shaking gently for 3 minutes, absorbance at 570 nm was read by plate reader.
as §1

[9] = test system: pulmonary arterial hypertension; conditions: breathing CO gas (e.g., 150 ppm), after 16 weeks; cited from earlier work
[10] = DMSO/PBS (pH = 7.4) 5:1 at 37° C.
[11] = 15 mg/kg i.p., compared to the TNBS group

O=C(NCCOCCOCCOC1OC(CO)C(O)C(O)C1O)OCC1[C@H]2CCC#CCC[C@@H]12 (stereo partly shown) [BCN-M]
cytotoxicity ([1]; 24 h of treatment, within 1 mM): none of the compounds led to any cytotoxicity
decrease of the LPS-induced accumulation of TNF-α (TNF-α [2]; co-treatment with TPCPD-M and BCN-M 1 mM+1 mM, 24 h): 50%
inhibition of the LPS-induced accumulation of TNF-α (TNF-α [2]; tested separately): do not lead to any inhibition

OCC1[C@H]2CCC#CCC[C@@H]12 (stereo partly shown) [BCN]
time in which reaction with TPCPD finished [3]: ≤ 5 min
cytotoxicity (RAW cells; 8 h, within the concentration range studied): Neither 6a (FIG. 3b) and nor the product (FIG. 3c) displayed any sign of cytotoxicity
cytotoxicity (RAW cells; 24 h, 1 mM): 60%

NCC(=O)O.[C-]#[O+].[C-]#[O+].[C-]#[O+].[Cl][Ru] [CORM3, reference compound]
decrease in cell viability ([1]; 1 mM): 30%

C#CCN(C)C(=O)C1=C2C(=C(c3ccccc3)C1=O)c1cccc3cccc2c13 [Compound 10a]
k CO release rate ([4]; CH2Cl2 at room temperature (25° C.)): 2.3 ± 0.2 h⁻¹
CO release rate constant (first order) ([4]; CH3CN (25° C.)): 3.6 ± 0.4 h⁻¹
CO release rate constant (first order) ([4]; DMSO (25° C.)): 6.6 ± 0.6 h⁻¹
CO release rate constant (first order) ([4]; DMSO/PBS (5:1, 25° C.)): 11.0 ± 1.4 h⁻¹
CO release rate constant (first order) ([4]; DMSO/PBS (10:1, 25° C.)): 7.7 ± 0.6 h⁻¹
k CO release rate [4, 10]: 22.4 ± 3.2 h⁻¹
λem emission wavelength [5]: 450 nm
λex excitation wavelength [5]: 371 nm
Φ quantum yield [5]: 0.21
incubation time after which the intramolecular DAR reaction was finished [6]: 5 min

CN(CC#C[Si](c1ccccc1)(c1ccccc1)C(C)(C)C)C(=O)C1=C2C(=C(c3ccccc3)C1=O)c1cccc3cccc2c13 [Compound 10d]
LPS-induced TNF-α expression / secretion (TNF-α [7]): suppressed TNF-α secretion, but it did not show any dose-dependent effect
k CO release rate [4, 10]: 22.6 ± 0.2 h⁻¹
λem emission wavelength [5]: 456 nm
λex excitation wavelength [5]: 378 nm
Φ quantum yield [5]: 0.21

CC(C)N1CCc2cc(-c3ccccc3)c3c(c2C1=O)-c1cccc2cccc-3c12 [Compound 44b]
LPS-induced TNF-α expression / secretion (TNF-α [7]): did not show any TNF-α suppression effects
survival rate (TNBS induced colitis; 15 mg/kg i.p. 1 h before and 24, 48, 72 h after TNBS): no similar effects were observed
colon length (TNBS induced colitis; [11]): no similar effects were observed
colon thickness (TNBS induced colitis; [11]): no similar effects were observed
injury score (TNBS induced colitis; [11]): no similar effects were observed

C#CCOc1ccccc1C1=C2C(=C(C(=O)N3CCOCC3)C1=O)c1cccc3cccc2c13 [Compound 51]
K CO release [8]: 0.31 ± 0.003 h⁻¹
incubation time after which the intramolecular DAR reaction was finished [6]: 960 min

O=C1c2c(cc(-c3ccccc3)c3c2-c2cccc4cccc-3c24)CCN1CCOC1OC(CO)C(O)C(O)C1O (stereo not shown) [Compound 100a]
LPS-induced TNF-α expression / secretion (TNF-α [7]): dose-dependently inhibited
effect on cell viability (RAW 264.7 cells): did not show any effect on cell viability at up to 50 μM

C1#CCCCCCC1 [cyclooctyne]
time in which reaction with TPCPD finished [3]: 15 min

carbon monoxide [CO]
decrease of pulmonary vascular resistance compared to the pre-therapy value [9]: 20%

fluorocyclooctyne [fluorocycolooctyne]
time after which reaction with TPCPD had not reached completion [3]: > 24 h
